# Experimental data from the supplement of paper PMC11424490.
# Counter-ions that a name gives are not always drawn.
# What was measured:
# NCI-H2122 [1] = assay: combination cScore with sotorasib (Bliss gap around IC50) (%PoC); higher = stronger additive effect
# Protocol: (§1)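 Combination screen of 179 inhibitors with the KRAS G12C inhibitor sotorasib (AMG510) in dose matrices, CellTiter-Glo readout in NCI-H2122 (72 h), SW837 (144 h) and NCI-H358 cells. The cScore is the mean Bliss-independence gap (expected minus observed viability, in %PoC) over a 3x3 field around the IC50s of both drugs. Positive means additive, and >~10 is stated as clear additive.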
# SW837 [2] = assay: as above
# Protocol: as §1
# NCI-H2122 [3] = assay: combination cScore with adagrasib (Bliss gap around IC50) (%PoC); higher = stronger additive effect
# How it was run: (§2)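 Scores represent the average Bliss-independence gap, expected minus measured viability, in a field surrounding both monotherapy IC50s, with the top concentrations used when no IC50 was reached. Cells (NCI-H2122, NCI-H358, SW837) were seeded at 500 or 800 per well in 384-well plates, dosed in matrices at 24 h and grown for 72 h, with SW837 grown for 144 h. Viability was measured by CellTiter-Glo, normalised to vehicle wells and fitted with four-parameter curves.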
# SW837 [4] = assay: as above
# How it was run: as §2
SMILES,combination cScore with sotorasib (NCI-H2122 [1]),combination cScore with sotorasib (SW837 [2]),combination cScore with adagrasib (NCI-H2122 [3]),combination cScore with adagrasib (SW837 [4])
CCc1cnn2c(NCc3ccc[n+]([O-])c3)cc(N3CCCC[C@H]3CCO)nc12 + C=CC(=O)N1CCN(c2nc(=O)n(-c3c(C)ccnc3C(C)C)c3nc(-c4c(O)cccc4F)c(F)cc23)[C@@H](C)C1 [sotorasib],7.04,2.65,–,–
CN(C)CCCC(=O)Nc1n[nH]c2nnc(-c3ccccc3)cc12 + C=CC(=O)N1CCN(c2nc(=O)n(-c3c(C)ccnc3C(C)C)c3nc(-c4c(O)cccc4F)c(F)cc23)[C@@H](C)C1 [sotorasib],-11.8,-4.53,–,–
COc1ccc(Cn2ccc3ccc(C(=O)NO)cc32)cc1 + C=CC(=O)N1CCN(c2nc(=O)n(-c3c(C)ccnc3C(C)C)c3nc(-c4c(O)cccc4F)c(F)cc23)[C@@H](C)C1 [sotorasib],0.89,10.9,–,–
COc1ccc2nc3ccc(OC)cc3c(SCCCN)c2c1 + C=CC(=O)N1CCN(c2nc(=O)n(-c3c(C)ccnc3C(C)C)c3nc(-c4c(O)cccc4F)c(F)cc23)[C@@H](C)C1 [sotorasib],11.5,-2.67,–,–
C[C@@H](Oc1cc(-c2cnn(C3CCNCC3)c2)cnc1N)c1c(Cl)ccc(F)c1Cl + C=CC(=O)N1CCN(c2nc(=O)n(-c3c(C)ccnc3C(C)C)c3nc(-c4c(O)cccc4F)c(F)cc23)[C@@H](C)C1 [sotorasib],2.31,13.5,–,–
Cc1[nH]c(/C=C2\C(=O)Nc3ccc(S(=O)(=O)Cc4c(Cl)cccc4Cl)cc32)c(C)c1C(=O)N1CCC[C@@H]1CN1CCCC1 + C=CC(=O)N1CCN(c2nc(=O)n(-c3c(C)ccnc3C(C)C)c3nc(-c4c(O)cccc4F)c(F)cc23)[C@@H](C)C1 [sotorasib],0.62,-0.04,–,–
NC(=O)c1cnc(N[C@@H]2CCCC[C@@H]2N)nc1Nc1cccc(-n2nccn2)c1 + C=CC(=O)N1CCN(c2nc(=O)n(-c3c(C)ccnc3C(C)C)c3nc(-c4c(O)cccc4F)c(F)cc23)[C@@H](C)C1 [sotorasib],7.42,-0.31,–,–
O=[N+]([O-])c1ccc(NCCNc2ncc(-c3ncc[nH]3)c(-c3ccc(Cl)cc3Cl)n2)nc1 + C=CC(=O)N1CCN(c2nc(=O)n(-c3c(C)ccnc3C(C)C)c3nc(-c4c(O)cccc4F)c(F)cc23)[C@@H](C)C1 [sotorasib],-9.14,3.71,–,–
On1ncc2cc(CCc3nn[nH]n3)ccc21 + C=CC(=O)N1CCN(c2nc(=O)n(-c3c(C)ccnc3C(C)C)c3nc(-c4c(O)cccc4F)c(F)cc23)[C@@H](C)C1 [sotorasib],-2.12,-12.1,–,–
CNC(=O)c1cc(Oc2ccc(NC(=O)Nc3ccc(Cl)c(C(F)(F)F)c3)cc2)ccn1 [Sorafenib] + C=C(F)C(=O)N1CCN(c2nc(OC[C@@H]3CCCN3C)nc3c2CCN(c2cccc4cccc(Cl)c24)C3)C[C@@H]1CC#N [adagrasib],–,–,-6.98,-4.84
CCN(CC)CCNC(=O)c1c(C)[nH]c(/C=C2\C(=O)Nc3ccc(F)cc32)c1C [Sunitinib] + C=C(F)C(=O)N1CCN(c2nc(OC[C@@H]3CCCN3C)nc3c2CCN(c2cccc4cccc(Cl)c24)C3)C[C@@H]1CC#N [adagrasib],–,–,1.03,4.56
Cn1nnc2c(C(N)=O)ncn2c1=O [Temozolomide] + C=C(F)C(=O)N1CCN(c2nc(OC[C@@H]3CCCN3C)nc3c2CCN(c2cccc4cccc(Cl)c24)C3)C[C@@H]1CC#N [adagrasib],–,–,12.1,4.71
C[C@@H]1CCN(C(=O)CC#N)C[C@@H]1N(C)c1ncnc2[nH]ccc12 [Tofacitinib citrate] + C=C(F)C(=O)N1CCN(c2nc(OC[C@@H]3CCCN3C)nc3c2CCN(c2cccc4cccc(Cl)c24)C3)C[C@@H]1CC#N [adagrasib],–,–,-3.58,5.3
CC(C)C[C@@H](C(=O)N[C@H](C(=O)OC1CCCC1)c1ccccc1)[C@H](O)C(=O)NO [Tosedostat] + C=C(F)C(=O)N1CCN(c2nc(OC[C@@H]3CCCN3C)nc3c2CCN(c2cccc4cccc(Cl)c24)C3)C[C@@H]1CC#N [adagrasib],–,–,1.4,19.8
CC(=O)Nc1cccc(-n2c(=O)n(C3CC3)c(=O)c3c(Nc4ccc(I)cc4F)n(C)c(=O)c(C)c32)c1 [Trametinib] + C=C(F)C(=O)N1CCN(c2nc(OC[C@@H]3CCCN3C)nc3c2CCN(c2cccc4cccc(Cl)c24)C3)C[C@@H]1CC#N [adagrasib],–,–,6.74,13.6
CC1=C(/C=C/C(C)=C/C=C/C(C)=C/C(=O)O)C(C)(C)CCC1 [Tretinoin] + C=C(F)C(=O)N1CCN(c2nc(OC[C@@H]3CCCN3C)nc3c2CCN(c2cccc4cccc(Cl)c24)C3)C[C@@H]1CC#N [adagrasib],–,–,-2.19,2.87
COc1cc2c(NC3CCN(C(C)C)CC3)nc(C3CCCCC3)nc2cc1OCCCN1CCCC1 [UNC0638] + C=C(F)C(=O)N1CCN(c2nc(OC[C@@H]3CCCN3C)nc3c2CCN(c2cccc4cccc(Cl)c24)C3)C[C@@H]1CC#N [adagrasib],–,–,5.77,13.2
CC(C)Nc1cc(-c2c[nH]c(C(=O)N[C@H](CO)c3cccc(Cl)c3)c2)c(Cl)cn1 [Ulixertinib] + C=C(F)C(=O)N1CCN(c2nc(OC[C@@H]3CCCN3C)nc3c2CCN(c2cccc4cccc(Cl)c24)C3)C[C@@H]1CC#N [adagrasib],–,–,-12.2,2.22
CS(=O)(=O)c1ccc(-c2cnc(N)c(C(=O)Nc3ccccc3)n2)cc1 [VE-821] + C=C(F)C(=O)N1CCN(c2nc(OC[C@@H]3CCCN3C)nc3c2CCN(c2cccc4cccc(Cl)c24)C3)C[C@@H]1CC#N [adagrasib],–,–,4.3,12.8
CNCc1ccc(-c2cc(-c3nc(-c4ccc(S(=O)(=O)C(C)C)cc4)cnc3N)on2)cc1 [VE-822/VX-970] + C=C(F)C(=O)N1CCN(c2nc(OC[C@@H]3CCCN3C)nc3c2CCN(c2cccc4cccc(Cl)c24)C3)C[C@@H]1CC#N [adagrasib],–,–,3.08,-9.66
CCCC(CCC)C(=O)O [Valproic acid] + C=C(F)C(=O)N1CCN(c2nc(OC[C@@H]3CCCN3C)nc3c2CCN(c2cccc4cccc(Cl)c24)C3)C[C@@H]1CC#N [adagrasib],–,–,-2.93,2.04
C[C@]1(c2nc3c(C(N)=O)cccc3[nH]2)CCCN1 [Veliparib] + C=C(F)C(=O)N1CCN(c2nc(OC[C@@H]3CCCN3C)nc3c2CCN(c2cccc4cccc(Cl)c24)C3)C[C@@H]1CC#N [adagrasib],–,–,-0.59,5.64
CC[C@]1(O)C[C@@H]2CN(CCc3c([nH]c4ccccc34)[C@@](C(=O)OC)(c3cc4c(cc3OC)N(C)[C@H]3[C@@](O)(C(=O)OC)[C@H](OC(C)=O)[C@]5(CC)C=CCN6CC[C@]43[C@@H]65)C2)C1 [Vinblastine] + C=C(F)C(=O)N1CCN(c2nc(OC[C@@H]3CCCN3C)nc3c2CCN(c2cccc4cccc(Cl)c24)C3)C[C@@H]1CC#N [adagrasib],–,–,-3.66,4.5
CCC1=C[C@@H]2CN(C1)Cc1c([nH]c3ccccc13)[C@@](C(=O)OC)(c1cc3c(cc1OC)N(C)[C@H]1[C@@](O)(C(=O)OC)[C@H](OC(C)=O)[C@]4(CC)C=CCN5CC[C@]31[C@@H]54)C2 [Vinorelbine] + C=C(F)C(=O)N1CCN(c2nc(OC[C@@H]3CCCN3C)nc3c2CCN(c2cccc4cccc(Cl)c24)C3)C[C@@H]1CC#N [adagrasib],–,–,-8.58,3.93
CS(=O)(=O)c1ccc(C(=O)Nc2ccc(Cl)c(-c3ccccn3)c2)c(Cl)c1 [Vismodegib] + C=C(F)C(=O)N1CCN(c2nc(OC[C@@H]3CCCN3C)nc3c2CCN(c2cccc4cccc(Cl)c24)C3)C[C@@H]1CC#N [adagrasib],–,–,3.61,15.7
O=C(CCCCCCC(=O)Nc1ccccc1)NO [Vorinostat] + C=C(F)C(=O)N1CCN(c2nc(OC[C@@H]3CCCN3C)nc3c2CCN(c2cccc4cccc(Cl)c24)C3)C[C@@H]1CC#N [adagrasib],–,–,1.67,14.9
CN[C@H]1CN(c2ccc3c(=O)c(C(=O)O)cn(-c4nccs4)c3n2)C[C@@H]1OC [Vosaroxin] + C=C(F)C(=O)N1CCN(c2nc(OC[C@@H]3CCCN3C)nc3c2CCN(c2cccc4cccc(Cl)c24)C3)C[C@@H]1CC#N [adagrasib],–,–,5.97,4.99
COc1cc2nccc(Oc3ccc(NC(=O)C4(C(=O)Nc5ccc(F)cc5)CC4)cc3)c2cc1OC [XL-184] + C=C(F)C(=O)N1CCN(c2nc(OC[C@@H]3CCCN3C)nc3c2CCN(c2cccc4cccc(Cl)c24)C3)C[C@@H]1CC#N [adagrasib],–,–,4.53,9.25
